Values joined by “and” are separate entries in the source; they are usually repeats but may differ in a detail not shown here. Equal values may be shown once. Toxic doses and inconclusive results are not listed. Rule for the calls: active = survival T/C of 150% or more; inactive = T/C below 125% in these data.
System: CD2F1 mice, L1210 leukemia ip, survival T/C
Experiment: NCI In Vivo Anticancer Drug Screen. Data for tumor model L1210 Leukemia (intraperitoneal) in CD2F1 (CDF1) mice
Details: endpoint: mean survival time, higher = longer survival
Outline: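 Each value reflects a quotient of treated over vehicle control outcomes in mice with a transplanted tumor.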

[1] = dose: 12.5 mg/kg/injection, schedule: Q01DX009 (ip), vehicle: saline with Tween-80
[2] = dose: 25.0 mg/kg/injection, schedule: Q01DX009 (ip), vehicle: saline with Tween-80
[3] = dose: 50.0 mg/kg/injection, schedule: Q01DX009 (ip), vehicle: saline with Tween-80
[4] = dose: 100.0 mg/kg/injection, schedule: Q01DX009 (ip), vehicle: saline with Tween-80
[5] = dose: 100.0 mg/kg/injection, schedule: Q01DX001 (ip), vehicle: saline with Tween-80
[6] = dose: 200.0 mg/kg/injection, schedule: Q01DX001 (ip), vehicle: saline with Tween-80
[7] = dose: 100.0 mg/kg/injection, schedule: Q04DX003 (ip), vehicle: saline with Tween-80
[8] = dose: 200.0 mg/kg/injection, schedule: Q04DX003 (ip), vehicle: saline with Tween-80
[9] = dose: 400.0 mg/kg/injection, schedule: Q04DX003 (ip), vehicle: saline with Tween-80
[10] = dose: 400.0 mg/kg/injection, schedule: Q01DX009 (ip), vehicle: saline with Tween-80
[11] = dose: 200.0 mg/kg/injection, schedule: Q01DX009 (ip), vehicle: saline with Tween-80
[12] = dose: 25.0 mg/kg/injection, schedule: Q04DX003 (ip), vehicle: saline with Tween-80
[13] = dose: 75.0 mg/kg/injection, schedule: Q01DX001 (ip), vehicle: saline
[14] = dose: 150.0 mg/kg/injection, schedule: Q01DX001 (ip), vehicle: saline

Measured: T/C

c1ccc(P(=N[P+](c2ccccc2)(c2ccccc2)c2ccccc2)(c2ccccc2)c2ccccc2)cc1
inactive: dose: 0.75 mg/kg/injection, schedule: Q01DX009 (ip), vehicle: saline 106 % of control | dose: 1.5 mg/kg/injection, schedule: Q01DX009 (ip), vehicle: saline 103 % of control | dose: 3.13 mg/kg/injection, schedule: Q01DX009 (ip), vehicle: saline with Tween-80 94 % of control | dose: 3.13 mg/kg/injection, schedule: Q04DX002 (ip), vehicle: saline with Tween-80 102 % of control | dose: 6.25 mg/kg/injection, schedule: Q04DX002 (ip), vehicle: saline with Tween-80 110 % of control | dose: 12.5 mg/kg/injection, schedule: Q04DX002 (ip), vehicle: saline with Tween-80 90 % of control and 93 % of control

O=C1CN(Cc2ccc3c(c2)OCO3)NO1
inactive: dose: 6.25 mg/kg/injection, schedule: Q01DX009 (ip), vehicle: saline with Tween-80 98 % of control and 101 % of control | [1] 98 % of control | [2] 102 % of control and 109 % of control | [3] 113 % of control | [4] 120 % of control and 104 % of control

CCOC(=O)C1(C(=O)OCC)CCC2Nc3ccccc3C(=O)N21 (stereo not drawn)
inactive: dose: 100.0 mg/kg/injection, schedule: Q01DX001 (ip), vehicle: Klucel (hydroxypropylcellulose) (HPC) 108 % of control | dose: 200.0 mg/kg/injection, schedule: Q01DX001 (ip), vehicle: Klucel (hydroxypropylcellulose) (HPC) 108 % of control | dose: 400.0 mg/kg/injection, schedule: Q01DX001 (ip), vehicle: Klucel (hydroxypropylcellulose) (HPC) 96 % of control

NC(=O)Cc1ccccc1[N+](=O)[O-]
inactive: dose: 50.0 mg/kg/injection, schedule: Q01DX001 (ip), vehicle: saline with Tween-80 95 % of control | [5] 104 % of control | [6] 106 % of control

CC(C)(C)CC(C)(C)c1ccc(OCCOc2ccc(C(=O)Nc3ccc([N+](=O)[O-])cc3)cc2)cc1
inactive: dose: 100.0 mg/kg/injection, schedule: Q01DX009 (ip), vehicle: Klucel (hydroxypropylcellulose) (HPC) 87 % of control | dose: 100.0 mg/kg/injection, schedule: Q04DX003 (ip), vehicle: Klucel (hydroxypropylcellulose) (HPC) 96 % of control | dose: 200.0 mg/kg/injection, schedule: Q01DX009 (ip), vehicle: Klucel (hydroxypropylcellulose) (HPC) 105 % of control | dose: 200.0 mg/kg/injection, schedule: Q04DX003 (ip), vehicle: Klucel (hydroxypropylcellulose) (HPC) 98 % of control | dose: 400.0 mg/kg/injection, schedule: Q04DX003 (ip), vehicle: Klucel (hydroxypropylcellulose) (HPC) 94 % of control

CCCCCC(/C=N\N=C\c1ccco1)=C\c1ccccc1
inactive: [7] 93 % of control | [8] 93 % of control | [9] 96 % of control

CC(=O)N1CCC2(CC1)SSC1(CCN(C(C)=O)CC1)S2
inactive: dose: 5.0 mg/kg/injection, schedule: Q01DX009 (ip), vehicle: saline with Tween-80 102 % of control | dose: 5.0 mg/kg/injection, schedule: Q04DX003 (ip), vehicle: saline with Tween-80 92 % of control | dose: 10.0 mg/kg/injection, schedule: Q01DX009 (ip), vehicle: saline with Tween-80 103 % of control | dose: 10.0 mg/kg/injection, schedule: Q04DX003 (ip), vehicle: saline with Tween-80 91 % of control | dose: 20.0 mg/kg/injection, schedule: Q01DX009 (ip), vehicle: saline with Tween-80 100 % of control | dose: 20.0 mg/kg/injection, schedule: Q04DX003 (ip), vehicle: saline with Tween-80 96 % of control

COc1cc(C2c3cc4c(cc3C(O)C(CO)C2CO)OCO4)cc(OC)c1OC (stereo not drawn)
inactive: [1] 97 % of control | [2] 97 % of control | [3] 102 % of control | [4] 106 % of control | dose: 100.0 mg/kg/injection, schedule: Q04DX003 (ip), vehicle: saline sonified 107 % of control | dose: 150.0 mg/kg/injection, schedule: Q04DX003 (ip), vehicle: saline sonified 114 % of control | dose: 225.0 mg/kg/injection, schedule: Q04DX003 (ip), vehicle: saline sonified 108 % of control | [10] 122 % of control

C1CC2C3CCC(C3)C2C1 (stereo not drawn)
inactive: [4] 103 % of control | [11] 102 % of control | [10] 96 % of control

COC(OC)C(OC(C)=O)C(OC(C)=O)C(COC(C)=O)OC(C)=O (stereo not drawn)
inactive: dose: 100.0 mg/kg/injection, schedule: Q01DX001 (ip), vehicle: saline 107 % of control | dose: 200.0 mg/kg/injection, schedule: Q01DX001 (ip), vehicle: saline 95 % of control | dose: 400.0 mg/kg/injection, schedule: Q01DX001 (ip), vehicle: saline 101 % of control

Cc1[nH]c2ccc(N=CN(C)C)cc2c1C
inactive: dose: 25.0 mg/kg/injection, schedule: Q04DX002 (ip), vehicle: saline with Tween-80 111 % of control | dose: 50.0 mg/kg/injection, schedule: Q04DX002 (ip), vehicle: saline with Tween-80 111 % of control

O=c1cc(CBr)c2ccccc2[nH]1
inactive: [12] 103 % of control

CCOC(=O)CC(=O)c1ccc(C(=O)CC(=O)OCC)cc1
inactive: [5] 89 % of control | [6] 89 % of control | dose: 400.0 mg/kg/injection, schedule: Q01DX001 (ip), vehicle: saline with Tween-80 89 % of control

CC(=O)[O][Hg][c]1cc(-c2ccc(N=Nc3c(S(=O)(=O)O)cc4cccc(N)c4c3O)cc2)ccc1N=Nc1c(S(=O)(=O)O)cc2cccc(N)c2c1O
inactive: dose: 6.25 mg/kg/injection, schedule: Q04DX003 (ip), vehicle: saline with Tween-80 98 % of control | dose: 12.5 mg/kg/injection, schedule: Q04DX003 (ip), vehicle: saline with Tween-80 96 % of control | [12] 104 % of control

O=C1Nc2ccccc2C1c1ccccc1 (stereo not drawn)
inactive: dose: 100.0 mg/kg/injection, schedule: Q04DX002 (ip), vehicle: saline with Tween-80 97 % of control | dose: 200.0 mg/kg/injection, schedule: Q04DX002 (ip), vehicle: saline with Tween-80 90 % of control

O=C(Cc1nc2ccccc2[nH]c1=O)N/N=C/c1ccc2c(c1)CCC2
inactive: [4] 92 % of control | [11] 88 % of control | [10] 88 % of control

NC(CCC(=O)c1ccccn1)C(=O)O (stereo not drawn)
inactive: dose: 50.0 mg/kg/injection, schedule: Q01DX009 (ip), vehicle: saline 96 % of control | dose: 100.0 mg/kg/injection, schedule: Q01DX009 (ip), vehicle: saline 96 % of control | dose: 100.0 mg/kg/injection, schedule: Q04DX003 (ip), vehicle: saline 96 % of control | dose: 200.0 mg/kg/injection, schedule: Q01DX009 (ip), vehicle: saline 100 % of control | dose: 200.0 mg/kg/injection, schedule: Q04DX003 (ip), vehicle: saline 98 % of control

O=NN(CC(=O)N/N=C\c1ccc(Cl)cc1)CC(=O)N/N=C/c1ccc(Cl)cc1
inactive: [4] 91 % of control | [11] 94 % of control | [10] 96 % of control

NC(CCl)=NCCc1ccsc1
inactive: dose: 25.0 mg/kg/injection, schedule: Q04DX002 (ip), vehicle: saline 95 % of control | dose: 50.0 mg/kg/injection, schedule: Q04DX002 (ip), vehicle: saline 106 % of control | dose: 100.0 mg/kg/injection, schedule: Q04DX002 (ip), vehicle: saline 98 % of control and 112 % of control

CC(O)C(NC(=O)OC(C)(C)C)C(=O)ON1C(=O)CCC1=O (stereo not drawn)
inactive: [2] 92 % of control | [3] 94 % of control | [4] 96 % of control and 98 % of control

NNC(=O)c1ccccc1Cl
inactive: dose: 9.5 mg/kg/injection, schedule: Q01DX001 (ip), vehicle: other 97 % of control | dose: 19.0 mg/kg/injection, schedule: Q01DX001 (ip), vehicle: other 95 % of control | dose: 38.0 mg/kg/injection, schedule: Q01DX001 (ip), vehicle: other 97 % of control

C1COC2(CCC3C2C2CCC4(OCCO4)C32)O1 (stereo not drawn)
inactive: [7] 103 % of control | [8] 101 % of control | [9] 116 % of control

O=c1[nH]cnc2[nH]ccc12
inactive: [13] 110 % of control | [14] 96 % of control

NCCCCOc1ccc([N+](=O)[O-])cc1Cl
inactive: [13] 100 % of control | [14] 102 % of control
